# Measurements taken from ChEMBL document CHEMBL4602644, “Synthesis of PJOV56, a new quinoxalinyl-hydrazone derivative able to induce autophagy and apoptosis in colorectal cancer cells, and related compounds” (Bioorg Med Chem Lett, 2020).
# Activity calls are given as the source filed them. The rule behind the calls is not given here.
# Columns and labels:
# HL-60 = test: Cytotoxicity against human HL60 cells assessed as cell growth inhibition at 5 ug/ml measured after 72 hrs by MTT assay relative to control; assay type: functional; conditions: HL-60, 72 h, read-out: GI
# HCT-116 [1] = test: Cytotoxicity against human HCT116 cells assessed as cell growth inhibition at 5 ug/ml measured after 72 hrs by MTT assay relative to control; assay type: functional; conditions: HCT-116, 72 h, read-out: GI
# OVCAR-8 = test: Cytotoxicity against human OVCAR8 cells assessed as cell growth inhibition at 5 ug/ml measured after 72 hrs by MTT assay relative to control; assay type: functional; conditions: OVCAR-8, 72 h, read-out: GI
# K562 = test: Cytotoxicity against human K562 cells assessed as reduction in cell viability measured after 72 hrs by MTT assay; assay type: functional, cell-based; conditions: K562, 72 h
# HCT-116 [2] = test: Cytotoxicity against human HCT116 cells assessed as reduction in cell viability measured after 72 hrs by MTT assay; assay type: functional, cell-based; conditions: HCT-116, 72 h
# MCF7 = test: Cytotoxicity against human MCF7 cells assessed as reduction in cell viability measured after 72 hrs by MTT assay; assay type: functional, cell-based; conditions: MCF7, 72 h
# HepG2 = test: Cytotoxicity against human HepG2 cells assessed as reduction in cell viability measured after 72 hrs by MTT assay; assay type: functional, cell-based; conditions: HepG2, 72 h
# L929 = test: Cytotoxicity against mouse L929 cells assessed as reduction in cell viability measured after 72 hrs by MTT assay; assay type: cell-based; conditions: L929, 72 h
# HCT-116 [3] = test: Cytotoxicity against human HCT116 cells assessed as reduction in cell viability measured after 24 hrs by MTT assay; assay type: functional, cell-based; conditions: HCT-116, 24 h
# HCT-116 [4] = test: Induction of morphological changes in human HCT116 cells assessed as increase in cell size at 1.5 to 6 uM measured after 48 hrs by propidium iodide staining based flow cytometry; assay type: functional
# HCT-116 [5] = test: Induction of morphological changes in human HCT116 cells assessed as decrease in number of mitotic cells at 1.5 to 6 uM measured after 48 hrs by propidium iodide staining based flow cytometry; assay type: functional, cell-based
# HCT-116 [6] = test: Induction of morphological changes in human HCT116 cells assessed as discrete apoptotic cells at 6 uM measured after 48 hrs by propidium iodide staining based flow cytometry; assay type: functional, cell-based
# HCT-116 [7] = test: Induction of autophagy in human HCT116 cells assessed as formation of autophagic vacuoles at 3 to 6 uM measured after 48 hrs by monodansylcadaverine staining based confocal microscopy; assay type: functional, cell-based
# HCT-116 [8] = test: Induction of autophagy in human HCT116 cells increase in LC3A/B-II level at 3 to 6 uM measured after 48 hrs by Western blot analysis; assay type: functional, cell-based
# HCT-116 [9] = test: Induction of autophagy in human HCT116 cells decrease in Beclin 1 level at 6 uM measured after 48 hrs by Western blot analysis; assay type: functional, cell-based
# HCT-116 [10] = test: Induction of apoptosis in human HCT116 cells assessed as live cells at 1.5 uM measured after 48 hrs by annexinV-PE/7-AAD staining based flow cytometric analysis (reference value: 91.42 %); assay type: functional
# HCT-116 [11] = test: Induction of apoptosis in human HCT116 cells assessed as early apoptotic cells at 1.5 uM measured after 48 hrs by annexinV-PE/7-AAD staining based flow cytometric analysis (reference value: 6.53 %); assay type: functional
# HCT-116 [12] = test: Induction of apoptosis in human HCT116 cells assessed as necrotic cells at 1.5 uM measured after 48 hrs by annexinV-PE/7-AAD staining based flow cytometric analysis (reference value: 0.16 %); assay type: functional
# HCT-116 [13] = test: Induction of apoptosis in human HCT116 cells assessed as live cells at 3 uM measured after 48 hrs by annexinV-PE/7-AAD staining based flow cytometric analysis (reference value: 91.42 %); assay type: functional
# HCT-116 [14] = test: Induction of apoptosis in human HCT116 cells assessed as live cells at 6 uM measured after 48 hrs by annexinV-PE/7-AAD staining based flow cytometric analysis (reference value: 91.42 %); assay type: functional
# HCT-116 [15] = test: Induction of apoptosis in human HCT116 cells assessed as early apoptotic cells at 6 uM measured after 48 hrs by annexinV-PE/7-AAD staining based flow cytometric analysis (reference value: 6.53 %); assay type: functional
# HCT-116 [16] = test: Induction of apoptosis in human HCT116 cells assessed as late apoptotic cells at 6 uM measured after 48 hrs by annexinV-PE/7-AAD staining based flow cytometric analysis (reference value: 0.18 %); assay type: functional
# HCT-116 [17] = test: Induction of apoptosis in human HCT116 cells assessed as necrotic cells at 6 uM measured after 48 hrs by annexinV-PE/7-AAD staining based flow cytometric analysis (reference value: 0.16 %); assay type: functional
# HCT-116 [18] = test: Disruption of membrane integrity in human HCT116 cells assessed as increase in non-viable cells at 3 uM measured after 48 hrs by propidium iodide staining based flow cytometry relative to control; assay type: functional
# HCT-116 [19] = test: Disruption of membrane integrity in human HCT116 cells assessed as increase in non-viable cells at 6 uM measured after 48 hrs by propidium iodide staining based flow cytometry relative to control; assay type: functional
# HCT-116 [20] = test: Disruption of membrane integrity in human HCT116 cells assessed as decrease in viable cells at 6 uM measured after 48 hrs by propidium iodide staining based flow cytometry relative to control; assay type: functional
# HCT-116 [21] = test: Disruption of membrane integrity in human HCT116 cells at 1.5 to 3 uM measured after 48 hrs by propidium iodide staining based flow cytometry; assay type: functional, cell-based
# HCT-116 [22] = test: Induction of apoptosis in human HCT116 cells assessed as early apoptotic cells at 6 uM measured after 48 hrs by annexin-V staining based flow cytometry (reference value: 0.34 %); assay type: functional
# HCT-116 [23] = test: Induction of apoptosis in human HCT116 cells assessed as late apoptotic cells at 6 uM measured after 48 hrs by annexin-V staining based flow cytometry (reference value: 0.34 %); assay type: functional
# HCT-116 [24] = test: Induction of DNA fragmentation in human HCT116 cells at 6 uM measured after 48 hrs by propidium iodide staining based flow cytometry relative to control; assay type: functional
# HCT-116 [25] = test: Cell cycle arrest in human HCT116 cells assessed as accumulation at S phase at 1.5 uM measured after 48 hrs by propidium iodide staining based flow cytometry (reference value: 33.29 %); assay type: functional
# HCT-116 [26] = test: Cell cycle arrest in human HCT116 cells assessed as accumulation at G2/M phase at 1.5 uM measured after 48 hrs by propidium iodide staining based flow cytometry (reference value: 24.98 %); assay type: functional
# HCT-116 [27] = test: Cell cycle arrest in human HCT116 cells assessed as accumulation at G0/G1 phase at 3 uM measured after 48 hrs by propidium iodide staining based flow cytometry (reference value: 41.67 %); assay type: functional
# HCT-116 [28] = test: Cell cycle arrest in human HCT116 cells assessed as accumulation at S phase at 3 uM measured after 48 hrs by propidium iodide staining based flow cytometry (reference value: 33.29 %); assay type: functional
# HCT-116 [29] = test: Cell cycle arrest in human HCT116 cells assessed as accumulation at G2/M phase at 3 uM measured after 48 hrs by propidium iodide staining based flow cytometry (reference value: 24.98 %); assay type: functional
# HCT-116 [30] = test: Cell cycle arrest in human HCT116 cells assessed as accumulation at G2/M phase at 6 uM measured after 48 hrs by propidium iodide staining based flow cytometry (reference value: 24.98 %); assay type: functional
structure (smiles),measurement,setting,value
C(=N\Nc1cnc2ccccc2n1)/c1ccccn1,inhibition of growth at 5 µg/mL,HL-60,94.8%
same,inhibition of growth at 5 µg/mL,HCT-116 [1],80.4%
same,inhibition of growth at 5 µg/mL,OVCAR-8,97.8%
same,IC50,K562,2620 nM
same,IC50,HCT-116 [2],1830 nM
same,IC50,MCF7,7000 nM
same,IC50,HepG2,7350 nM
same,IC50,L929,2270 nM
same,IC50,HCT-116 [3],> 20000 nM
same,Activity,HCT-116 [4],Active
same,Activity,HCT-116 [5],Active
same,Activity,HCT-116 [6],Active
same,Activity,HCT-116 [7],Active
same,Activity,HCT-116 [8],Active
same,Activity,HCT-116 [9],Active
same,Activity,HCT-116 [10],89.63%
same,Activity,HCT-116 [11],5.61%
same,Activity,HCT-116 [12],0.63%
same,Activity,HCT-116 [13],90.36%
same,Activity,HCT-116 [14],66.2%
same,Activity,HCT-116 [15],8.28%
same,Activity,HCT-116 [16],17.9%
same,Activity,HCT-116 [17],7.49%
same,Activity,HCT-116 [18],9.46%
same,Activity,HCT-116 [19],31.36%
same,Activity,HCT-116 [20],68.31%
same,Activity,HCT-116 [21],inactive
same,Activity,HCT-116 [22],25.6%
same,Activity,HCT-116 [23],25.6%
same,Activity,HCT-116 [24],3.89%
same,Activity,HCT-116 [25],34.31%
same,Activity,HCT-116 [26],29.99%
same,Activity,HCT-116 [27],14.45%
same,Activity,HCT-116 [28],55.35%
same,Activity,HCT-116 [29],30.19%
same,Activity,HCT-116 [30],5.8%
